Values of other authors in US20100135983A1, “Anti-inflammatory compositions and methods” (Searete LLC, a limited liability corporation of the State …, priority 2008, published 2010).

How the values were obtained:
Src family kinase = settings: also its dependent cellular responses
lethal septic shock = settings: mice
[1] = single agent, infused at 400 mg over one hour
Epha1 = settings: at nanomolar concentrations
[2] = system: Src family kinases (Src, Lck, Yes, Fyn); settings: at nanomolar concentrations
proteasome = settings: cultured breast cancer cells; disulfiram bound to copper

CCN(CC)CCCC(C)Nc1ccnc2cc(Cl)ccc12 (stereo not drawn) [Chloroquine]
inhibition of CpG-induced Src family kinase activation (Src family kinase): does not inhibit

Cl.Cl.Nc1ccccc1Oc1ccc2c(N)nsc2c1 [Example M62812, 3-amino-6-(2-aminophenoxy)-1,2-benzisothiazole dihydrochloride]
prevention of lethal septic shock (lethal septic shock): prevents lethal septic shock

CCN(CC)CCCC(C)Nc1ccnc2cc(Cl)ccc12.O=P(O)(O)O.O=P(O)(O)O (stereo not drawn) [chloroquine phosphate, 7-chloro-4-[[4-(diethylamino)-1-methylbutyl]amino]quinoline phosphate (1:2)]
tolerability of intravenous infusion [1]: without complication

Cc1nc(Nc2ncc(C(=O)Nc3c(C)cccc3Cl)s2)cc(N2CCN(CCO)CC2)n1.O [dasatinib, N-(2-chloro-6-methylphenyl)-2-[[6-[4-(2-hydroxyethyl)-1-piperazinyl]-2-methyl-4-pyrimidinyl]amino]-5-thiazolecarboxamide, monohydrate]
inhibition of Epha1 (Epha1): inhibits
inhibition of Src family kinases (Src, Lck, Yes, Fyn) [2]: inhibits

CCN(CC)C(=S)SSC(=S)N(CC)CC [disulfiram, 1-(diethylthiocarbamoyldisulfanyl)-N,N-diethyl-methanethioamide]
proteasomal activity (proteasome): inhibits proteasomal activity
